The values below are quoted from earlier work in US4242298A, “Polysaccharide ester membrane clearing process” (priority 1979, dated 1980).

The test system of data set [1] is rat. The note with it: oral.
The test system of data set [2] is rat. The following applies: inhalation.
Data set [3] relates to rats. The following applies: 2000 ppm, 8 hours.
Data set [4] relates to rats. The note with it: 6 hours.
In data set [5] the test system is rats. The note with it: number of hours not given.

Like-named read-outs stand apart in the source and are kept apart here.

With `CCOCCO` [2-ethoxyethanol], the LD50 in the data set on rat [1] is on record as 3000 mg/kg. Besides, the LCLo in the data set with rat [2] (4H) was 4000 ppm.
`CCOCCOC(C)=O` [2-ethoxyethyl acetate]: the LD50 in the data set on rat [1] is listed as 5100 mg/kg. For the same compound, the LCLo in the data set with rat [2] (8H) was 1500 ppm.
As to `CC(=O)O` [Acetic Acid, reference compound], the LCLo in the data set with rat [2] (4H) is reported as 1600 ppm.
On to `O=C1CCCCC1` [Cyclohexanone, reference compound], for which the LD50 with rat [1] is on record as 1620 mg/kg. In addition, the LCLo with rat [2] (4H) is 2000 ppm.
For `CC(=O)CO` [acetol], the LD50 with rat [1] is 2200 mg/kg. In addition, the lethality on exposure result in the data set on rats [3] is “nonlethal”.
In the case of `CCOC(=O)CC(C)=O` [ethyl acetoacetate], in the data set with rats [4] (1129 ppm (calculated)), the “animal's growth, following exposure” value is “normal” and the symptoms on exposure entry is “no symptoms”.
As to `COC(=O)CC(C)=O` [methyl acetoacetate], the LD50 with rat [1] was 3000 mg/kg. Further, in the data set on rats [4] (1370 ppm (calculated)), the “animal's growth, following exposure” value is on record as “normal” and the symptoms on exposure result is listed as “no symptoms”. Also, the “lethality on exposure to concentrated vapor” value with rats [5] is “nonlethal”.
